Laboratory results reported in PMC5618191 (Toxins, 2017).

How the values were obtained:
[1] = system: CT-26-derived tumor allografts; assay: CT-26 allograft mouse model; assay type: in vivo, BALB/c mice
Experimental: (§1) For the allograft experiment, 4 × 10^5 CT-26 cells were resuspended in 50 µL RPMI medium and injected subcutaneously into the right flank of eight, 6–8 weeks old, male BALB/c mice that were obtained from Harlan Laboratories (San Pietro al Natisone, Italy). Likewise, in the xenograft experiment, 1 × 10^6 KB-3-1 cells in 50 µL RPMI medium were injected subcutaneously into the right flank of eight, 6–8 weeks old, male CB-17/IcrHanHsd-Prkdc severe combined immunodeficiency (SCID) mice. Of each group, four animals were randomly assigned to the control or to the treatment group. […] All animals were kept under pathogen-free conditions and all procedures were performed in a laminar flow hood. Effects of the treatment were assessed by daily recording of tumor size with a microcaliper and parameters indicating the animals’ overall health condition (e.g., body weight, fatigue, grooming, ragged coat, food and fluid consumption). Tumor volumes (mm^3) were calculated using the formula: (length × width^2)/2. […] The tumor mass was weighed and organs and tissues for immunohistochemical experiments were fixed in 4% formalin/PBS (Roti®-Histofix 4%, Roth, Karlsruhe, Germany) or shock-frozen in liquid nitrogen and stored at −80 °C until the samples were prepared for LC-MS/MS analysis. The experiments were approved by the ethics committee of the Austrian Federal Ministry of Science, Research, and Economy (BMWF-66.009/0084-II/3b/2013, date of approval: 5 September 2013) and performed in line with the Arrive guidelines for animal care and protection and with guidelines from the Austrian Animal Science Association and from the Federation of European Laboratory Animal Science Associations (FELASA).
(§2) From each mouse from both the control (n = 4) and the treatment group (n = 4), tissue samples were formalin-fixed, paraffin-embedded and used to prepare serial 3 µm sections. Then, slices were deparaffinized and rehydrated. To evaluate the percentages of interphase/resting, mitotic and dead (apoptotic/necrotic) cell fractions in tumor specimens, sections were stained with hematoxylin and eosin (H/E) by means of standard protocols. Numbers of the three cell fractions were analyzed in a blinded setup in at least four images of H/E-stained tumor sections, taken under a 40 × objective microscope lens. In addition, for the quantification of areas of dead tumor tissue in whole tumor sections, the H/E-stained slides were scanned with a Pannoramic MIDI automated slide scanner (3[…], Budapest, Hungary) and evaluated using Definiens’ TissueStudio® 4.0 (Definiens®, Munich, Germany) software and Pannoramic Viewer (3[…]) software. To evaluate the fraction of apoptotic cells in tumor sections a terminal deoxynucleotidyl transferase (TdT) deoxyuridine triphosphate (dUTP) nick end labeling (TUNEL) assay was performed applying the In Situ Cell Death Kit TMR (red) (Roche Diagnostics, Mannheim, Germany) according to the manufacturer’s protocol. Afterwards, slides were covered with Vectashield anti-fade mounting medium with DAPI (H-1200, Vector Laboratories, Burlingame, CA, USA). Slides were protected from light until they were scanned with a Pannoramic MIDI automated slide scanner (3[…]) and analyzed via digital image analysis software (Definiens’ TissueStudio® 4.0, Definiens®). In order to visualize the proliferative cell fraction (cells in the interphase or M-phase) of tumors, KB-3-1 tumor sections were stained with the Ki-67 (clone MiB-1) antibody from DAKO (1:100; Glostrup, Denmark) and for CT-26 tumor sections with Ki-67 (1:100; D3B5, rabbit, Cell Signaling, Danvers, USA). The primary antibody was incubated for 30 min at room temperature in a humid chamber and after rinsing the slides for 3 min in PBS + 0.1% Tween, the UltraVision LP detection system was applied according to the manufacturer’s instructions (Thermo Fisher Scientific, Massachusetts, MA, USA). Sections were counterstained with hematoxylin. […]

KB-3-1 cells [2] = system: KB-3-1 cells; design: method as in PMID 19517454; details: two-year in vitro selection process; cited from earlier work
[3] = system: KB-3-1-derived tumor xenografts; assay: KB-3-1 xenograft mouse model; assay type: in vivo, CB-17/SCID mice
Experimental: as §1, §2

KB-3-1 cells [4] = assay: Annexin-V/PI staining (cell death analysis); assay type: cell-based, human; details: KB-3-1, 24 h
Experimental: 1. Supplementary Materials and Methods […]
1.2 Annexin-V/PI Staining
KB-3-1 cells were seeded (2x10^5cells/well) and treated on the following day for 24 h with the […]
Cells were trypsinized, centrifuged (300g, 5 min) and resuspended in 100 µL buffer A (10 mM HEPES, 140 mM NaCl and 2.5 mM CaCl2) and stained for 15 min in the dark with PI (1 µg/mL) and Annexin-V-APC (20 µL/mL, BD Biosciences). Two-hundred µL of buffer A were then added and 10,000 cells were measured by FACS analysis (FACSCalibur; Becton Dickinson). Percentages of viable, early and late apoptotic cells and of necrotic cells were determined by CellQuest Pro software (Becton, Dickinson and Company, NY, USA). […]
The following primary […]
antibodies specific for the following targets were diluted 1:1000 in TBST/3% BSA (w/v): PARP, Bak, Bax, Bim, Bcl-xL (polyclonal, Cell Signaling Technology, Beverly, MA, USA), caspase 9, cl. caspase 9 (monoclonal, Cell Signaling Technology) and β-actin (monoclonal, Clone AC-15, Sigma-Aldrich).
Secondary horseradish peroxidase-labeled antibodies (goat anti-rabbit or anti-mouse, Santa Cruz Biotechnology, Dallas, Texas, TX, USA) were diluted 1:10,000 in TBST/1% BSA. […]
(b) Mean percentages (± SD) of early (white bars) and late apoptotic (gray bars) and of necrotic cells (black bars) were determined by Annexin-V/PI staining after cells were treated for 24 h with the […]

Question: What does the source list for beauvericin?
Answer: Average tumor weight reduction ([1]; 5 mg/kg bw/day i.p., day 14, vs untreated, p = 0.057): 60%; Reduction of mean tumor volume ([1]; 5 mg/kg bw/day i.p., two cycles, day 14, vs solvent control): 52.8%; Higher rate of scattered cells with signs of cell death (apoptosis or necrosis) in viable tumor regions ([1]; H/E, treated vs control, p < 0.05): 22%; Ki-67-positive (proliferating) tumor cells ([1]; treated group, tumor sections, control 66.9 ± […]): 81.6 ± 3.7%; Mitotic cells in H/E-stained tumor sections ([1]; treated group, control 0.4 ± 0.1%): 0.3 ± 0.2%; Increase of average apoptosis rate (TUNEL) in viable tumor areas ([1]; treated versus untreated, p = 0.065): 2.1 fold; Increase of necrotic areas in H/E-stained whole tumor sections ([1]; treated vs control, p < 0.05): 2.2 fold; Acquisition of resistance (KB-3-1 cells [2]): did not induce beauvericin-unresponsiveness; Mean tumor weight lowered ([3]; 5 mg/kg bw/day, day 16, vs control, p = 0.152): 31.2%; Reduction in tumor volume ([3]; 5 mg/kg bw/day, two cycles, day 16): 31.3%; Percentages of apoptotic/necrotic cells within viable areas (H/E) ([3]; treated vs control): almost no difference; Increase of TUNEL-positive cells ([3]; treated vs control, p = 0.143): 1.5 fold; Increase of proportion of necrotic areas in H/E-stained whole tumor sections ([3]; treated vs control, significant): 34.2%; Ki-67-positive cells ([3]; treatment group, tumor sections, control 99.5 ± 0.6%): 98.8 ± 0.6%; Mitotic cells in H/E-stained tumor sections ([3]; treatment group, control 1.5 ± 0.4%): 1.3 ± 0.3%; Concentration at which induction of apoptotic cell death was clearly detectable (KB-3-1 cells [4]): > 2 µM
